From patent US20240315994A1, “SMALL MOLECULE MODULATORS OF FERROPTOSIS” (ARPEGGIO BIOSCIENCES, INC., priority 2021, published 2024)

Columns and labels:
recombinant GPX4 protein = target: T1, recombinant GPX4 protein (Homo sapiens, UniProt P36969); assay: GPX4 inhibitor screening assay (Cayman Chemical cat #701880); format: biochemical; settings: 25 μM, one hour incubation; RSL3 without the 14-3-3 adapter protein
T1 construct: purchased Cayman Chemical SO960203
T1 sequence (P36969 1-197): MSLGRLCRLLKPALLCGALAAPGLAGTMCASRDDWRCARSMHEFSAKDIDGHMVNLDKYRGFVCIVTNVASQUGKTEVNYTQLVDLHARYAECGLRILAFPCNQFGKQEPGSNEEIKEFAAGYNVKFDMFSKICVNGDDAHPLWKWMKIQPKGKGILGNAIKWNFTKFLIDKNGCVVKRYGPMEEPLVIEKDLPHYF
Description: To determine whether the five ferroptosis-inducing compounds (1816, 8216, 3362, 1962, and 0973) inhibit GPX4 enzymatic activity in vitro, we used a commercially available GPX4 inhibitor screening kit (Cayman Chemical cat #701880). This assay measures a compound's ability to prevent cumene hydroperoxide reduction by recombinant GPX4 protein. Briefly, the five ferroptosis-inducing compounds (25 μM) were incubated with recombinant GPX4 protein for one hour before being run in the Cayman Chemicals GPX4 inhibitor screening assay according to manufacturer's recommendations. The assay read out is a change in absorbance between NADPH and NADP. ML162 (25 μM) and RSL3 (25 μM) were used as positive control compounds.
An enzymatic assay that measures the reduction of […] by GPX4 was used to test the ability of compounds 8216, 6666, 8147, and 3793 to inhibit the activity of GPX4. The enzymatic assay was performed using a commercially available kit (Cayman cat #701880). The compounds were tested at 8 concentrations in duplicate with the compound being diluted following manufacturer's instructions. The enzymatic reaction was allowed to continue for 1 hour prior to reading out the kinetic shift in absorbance that occurs as result of GPX4 […].

[1] = tested on: HMOX1 expression in HT-1080 fibrosarcoma cells; assay: HMOX1 induction by RT-qPCR in HT-1080 cells; format: cell-based
Description: We tested several of our ferroptosis-inducing compounds for their ability to rapidly induce HMOX1 by RT-qPCR. Briefly, HT-1080 fibrosarcoma cells were treated with either 10 µM or 5 µM of compound RSL3, 8216, 1962, 1816, or 3362 for four hours. RNA was isolated and reverse transcribed and HMOX1 expression quantified by qPCR. Each sample was normalized to an ACTB housekeeping gene control and fold change was calculated relative to a DMSO control.
We tested several of the ferroptosis-inducing compounds for their ability to rapidly induce expression of HMOX1. Briefly, HT-1080 fibrosarcoma cells were plated in 6-well dishes 24 hours prior to treatment with 5 μM of 8147, 6047, 3793, Rsl3, 6666 or 8216 with and without the addition of ferrostatin-1 to the media. Cells were harvested from the plate after 4 hours of compound treatment by adding Trizol reagent directly to the plate to lyse the cells and preserve the RNA. RNA was isolated using the Direct-zol 96-well RNA kit (Zymo cat #R2054). Subsequently purity and quantity of RNA in the samples were measured using a Nanodrop (Thermo Fisher cat #ND-ONE-W). RNA samples were normalized to 2 μg and reverse transcribed to cDNA using the Multiscribe High-Capacity Reverse Transcription kit (Thermo Fisher cat #4368814) following manufacturer's instructions. Quantitative real time PCR was carried out in triplicate using SYBR Select Master Mix (Thermo Fisher cat #4472903) following manufacturer's instructions with primers designed against HMOX1 and ActB from IDT. HMOX1 expression levels were normalized to ActB for each sample then fold change was determined against the vehicle control, DMSO.

[2] = tested on: HMOX1 gene transcription in IMR90 lung fibroblast cells; assay: PRO-seq transcriptional response (HMOX1) in IMR90 cells; format: cell-based; settings: one hour, RSL3 1 μM, ML162 1 μM, erastin 10 μM
From the text: Expression of heme oxygenase 1 (HMOX1) mRNA may be used as a molecular response biomarker for induction of ferroptosis by direct inhibition of GPX4. To distinguish the transcriptional responses elicited by direct versus indirect inhibitors of GPX4, we profiled two direct GPX4 inhibitors, RSL3 and ML162, as well as one system Xc inhibitor, erastin, by Precision Run On followed by sequencing (PRO-seq) in IMR90 lung fibroblast cells. Briefly, IMR90 lung fibroblasts cells (a ferroptosis sensitive cell line) were treated with GPX inhibitors (RSL3 1 μM, ML162 1 μM) or system Xc inhibitor (erastin 10 µM) for one hour and samples were subjected to PRO-seq.

[3] = tested on: HT-1080 fibrosarcoma cells; assay: HT-1080 single-concentration cell viability screen (Cell Titer Glo); format: cell-based; settings: 10 μM compound, 48 hours, duplicate, fraction of control
From the text: To identify potential covalent inhibitors of GPX4, we screened a panel of 294 diverse small molecules from the Enamine covalent inhibitor library (Catalog No. CSL-10480-0-Z-10, Enamine, Monmouth, NJ). Each compound contains either a chloroacetamide or acrylamide moiety theoretically capable of forming a covalent bond with a selenocysteine. The small molecule compounds were selected for a diversity of backbone structures. The screening protocol used the cell viability assay Cell Titer Glo® (available from Promega, Madison, WI). Cell Titer Glo® is a luminescent cell viability that determines the number of viable cells in culture by quantifying ATP, which indicates the presence of metabolically active cells. Briefly, HT-1080 fibrosarcoma cells were plated 24 hours prior to treatment with 10 µM of each compound in the screening panel. Cell Titer Glo® was used to read out cell viability after 48 hours of compound exposure. Data was collected in duplicate.
To determine whether similar molecules could offer other starting points for a medicinal chemistry campaign, we screened 95 additional compounds that contain a similar base structure to that of 8216. Briefly, HT-1080 fibrosarcoma cells were treated with 10 µM of a compound for 48 hours and cell viability was measured by Cell Titer Glo®. Data was collected in duplicate. […]

reduction in GPX4 enzymatic activity (recombinant GPX4 protein): about 55%
SMILES: COC(=O)c1ccc([C@@H]2c3[nH]c4ccccc4c3C[C@@H](C(=O)OC)N2C(=O)CCl)cc1 [RSL3, reference compound]
HMOX1 upregulation and rescue by ferrostatin-1 (RT-qPCR) ([1]; 5 μM, 4 hours, with and without ferrostatin-1): upregulation of HMOX1 which was rescued by the addition of ferrostatin-1, to varying degrees
HMOX1 induction (RT-qPCR) ([1]; 10 μM or 5 μM, four hours, normalized to ACTB, relative to DMSO): induces HMOX1 dose-dependently
HMOX1 transcriptional activation (PRO-seq) [2]: robust transcriptional activation of the HMOX1 gene at one hour
Average relative cell viability [3]: 0.00933
